Measurements from the supplement of paper PMC10307832.

compound: COCC[n+]1c2c(n(Cc3cnccn3)c1C)C(=O)c1ccccc1C2=O [YM155] + CC1(C)CCC(c2ccc(Cl)cc2)=C(CN2CCN(c3ccc(C(=O)NS(=O)(=O)c4ccc(N[C@H](CCN5CCOCC5)CSc5ccccc5)c(S(=O)(=O)C(F)(F)F)c4)cc3)CC2)C1 [Navitoclax] (partner 0.5 µM); assay: relative viability (nuclei count vs DMSO), 5 days (fraction); higher = more cells survive; details: first compound 0.002 µM
In short: (§1)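 Lung cancer cell lines, seeded in 1536-well plates, were treated the following day by pin tool with a single drug or with five library-drug doses (not always all listed) in √10 steps on top of a fixed anchor-drug dose. Cells were fixed and nuclei stained in one step after 5 days, and nuclei were counted. Relative viability is the nuclei count for treated wells divided by that for vehicle wells, reported as medians of duplicate plates.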

Point of comparison: EBC-1, relative viability 0.428. Against it:
- EKVX — higher, 0.854
- EPLC-272H — higher, 1.14
- NCI-H520 — higher, 1.15
- RERF-LC-KJ — higher, 1.04
- HCC-827 — higher, 1.03
- NCI-H2087 — higher, 1.03
- NCI-H1299 — higher, 1.08
- NCI-H1792 — higher, 0.595
- Calu-6 — higher, 0.849
- NCI-H1703 — higher, 1.07
- IA-LM — higher, 0.723
- A549 — higher, 1.28
- NCI-H727 — higher, 0.479
- HCC-44 — higher, 0.983

same assay, conditions: first compound 0.006325 µM

Point of comparison: NCI-H2087, relative viability 0.875. Against it:
- EKVX — higher, 0.989
- EPLC-272H — higher, 1.11
- NCI-H520 — higher, 0.991
- RERF-LC-KJ — higher, 1.07
- HCC-827 — higher, 1.11
- NCI-H1299 — higher, 0.996
- NCI-H1792 — lower, 0.615
- Calu-6 — lower, 0.589
- NCI-H1703 — higher, 1.29
- EBC-1 — lower, 0.404
- IA-LM — lower, 0.757
- A549 — higher, 1.24
- NCI-H727 — lower, 0.382
- HCC-44 — higher, 1.04

same assay, conditions: first compound 0.02 µM

Point of comparison: HCC-44, relative viability 0.988. Against it:
- EKVX — higher, 1.01
- EPLC-272H — higher, 1.13
- NCI-H520 — higher, 1.07
- RERF-LC-KJ — lower, 0.974
- HCC-827 — higher, 1.01
- NCI-H2087 — lower, 0.969
- NCI-H1299 — higher, 1.01
- NCI-H1792 — lower, 0.63
- Calu-6 — lower, 0.191
- NCI-H1703 — lower, 0.938
- EBC-1 — lower, 0.458
- IA-LM — lower, 0.811
- A549 — higher, 1.11
- NCI-H727 — lower, 0.39

same assay, conditions: first compound 0.06325 µM

Point of comparison: HCC-44, relative viability 0.914. Against it:
- EKVX — lower, 0.704
- EPLC-272H — higher, 1.18
- NCI-H520 — higher, 1.03
- RERF-LC-KJ — higher, 1.06
- HCC-827 — higher, 0.992
- NCI-H2087 — lower, 0.816
- NCI-H1299 — higher, 1.03
- NCI-H1792 — lower, 0.612
- Calu-6 — lower, 0.112
- NCI-H1703 — lower, 0.319
- EBC-1 — lower, 0.389
- IA-LM — lower, 0.585
- A549 — lower, 0.14
- NCI-H727 — lower, 0.48

compound: CC(C)(C)c1cc(NC(=O)Nc2ccc(-c3cn4c(n3)sc3cc(OCCN5CCOCC5)ccc34)cc2)no1 [Quizartinib] + CC1(C)CCC(c2ccc(Cl)cc2)=C(CN2CCN(c3ccc(C(=O)NS(=O)(=O)c4ccc(N[C@H](CCN5CCOCC5)CSc5ccccc5)c(S(=O)(=O)C(F)(F)F)c4)cc3)CC2)C1 [Navitoclax] (partner 0.5 µM); assay: as above; details: first compound 0.001 µM
In short: as §1

Point of comparison: EPLC-272H, relative viability 1.06. Against it:
- EKVX — lower, 0.953
- NCI-H520 — higher, 1.17
- RERF-LC-KJ — lower, 0.854
- HCC-827 — lower, 0.987
- NCI-H2087 — lower, 0.971
- NCI-H1792 — lower, 0.584
- Calu-6 — lower, 0.749
- NCI-H1703 — lower, 0.978
- EBC-1 — lower, 0.411
- IA-LM — lower, 0.836
- A549 — higher, 1.26
- NCI-H727 — lower, 0.408
- HCC-44 — lower, 0.891

same assay, conditions: first compound 0.003162 µM

Point of comparison: HCC-827, relative viability 1.03. Against it:
- EKVX — lower, 0.88
- EPLC-272H — lower, 0.964
- NCI-H520 — lower, 0.982
- RERF-LC-KJ — lower, 0.699
- NCI-H2087 — lower, 0.953
- NCI-H1299 — the same, 1.03
- NCI-H1792 — lower, 0.646
- Calu-6 — lower, 0.877
- NCI-H1703 — lower, 0.474
- EBC-1 — lower, 0.436
- IA-LM — lower, 0.908
- A549 — higher, 1.11
- HCC-44 — lower, 0.952

same assay, conditions: first compound 0.01 µM

Point of comparison: Calu-6, relative viability 0.923. Against it:
- EKVX — lower, 0.901
- EPLC-272H — higher, 1.15
- NCI-H520 — higher, 1.19
- RERF-LC-KJ — higher, 1.08
- HCC-827 — higher, 1.05
- NCI-H2087 — higher, 1.06
- NCI-H1299 — higher, 1.02
- NCI-H1792 — lower, 0.697
- NCI-H1703 — lower, 0.234
- EBC-1 — lower, 0.524
- IA-LM — lower, 0.776
- A549 — higher, 1.25
- NCI-H727 — lower, 0.611
- HCC-44 — higher, 1.04

same assay, conditions: first compound 0.03162 µM

Point of comparison: NCI-H727, relative viability 0.476. Against it:
- EKVX — higher, 0.978
- EPLC-272H — higher, 1.18
- NCI-H520 — higher, 0.948
- RERF-LC-KJ — higher, 0.918
- HCC-827 — higher, 0.957
- NCI-H2087 — higher, 1.02
- NCI-H1299 — higher, 1.01
- NCI-H1792 — higher, 0.617
- Calu-6 — higher, 0.701
- NCI-H1703 — lower, 0.214
- EBC-1 — higher, 0.479
- IA-LM — higher, 0.836
- HCC-44 — higher, 0.955

same assay, conditions: first compound 0.1 µM

Point of comparison: EBC-1, relative viability 0.527. Against it:
- EKVX — higher, 0.992
- EPLC-272H — higher, 1.05
- NCI-H520 — higher, 0.888
- RERF-LC-KJ — higher, 0.688
- HCC-827 — higher, 1.13
- NCI-H2087 — higher, 0.962
- NCI-H1299 — higher, 1.04
- NCI-H1792 — higher, 0.587
- Calu-6 — higher, 0.759
- NCI-H1703 — lower, 0.296
- IA-LM — higher, 0.718
- A549 — higher, 1.13
- NCI-H727 — lower, 0.357
- HCC-44 — higher, 0.817

compound: COCC[n+]1c2c(n(Cc3cnccn3)c1C)C(=O)c1ccccc1C2=O [YM155] + Nc1nc2[nH]cc(CCc3ccc(C(=O)N[C@@H](CCC(=O)O)C(=O)O)cc3)c2c(=O)[nH]1 [Pemetrexed] (partner 0.2 µM); assay: as above; details: first compound 0.002 µM
In short: as §1

Point of comparison: EKVX, relative viability 0.431. Against it:
- EPLC-272H — lower, 0.327
- NCI-H520 — higher, 0.534
- NCI-H1563 — higher, 0.753
- NCI-H650 — higher, 0.834
- RERF-LC-KJ — higher, 0.487
- HCC-827 — lower, 0.301
- NCI-H2087 — higher, 0.639
- NCI-H1792 — higher, 0.713
